{"source": "patent US6348485B1", "about": "“Method for treating or preventing sleep disorders” (Takeda Chemical Industries, Ltd., priority 1998, dated 2002)", "key": {"[1]": {"test_system": "crab-eating macaques (Macaca fascicularis)", "assay": "Sleep latencies at nighttime in monkeys (EEG/EMG/EOG sleep stage classification)", "assay_type": "in vivo", "settings": "vs control", "description": "(§1) Six female crab-eating macaques (Macaca fascicularis), weighing 2.8-4.2 kg, were housed individually in a room maintained at 24±1° C. with a 12-h light/dark cycle (light on 6:00). Under sodium pentobarbital anesthesia, stainless steel screw and bipolar electrodes for electroencephalogram (EEG), electromyogram (EMG) and electro-oculogram (EOG) were implanted. After recovery from surgery, the monkeys were well habituated to the recording chamber (60×60×80 cm) located in a sound-proof and electrically shielded room. Compound A (0.003 mg/kg) and/or triazolam (0.03 mg/kg) were given orally 17:50-17:55. Compound A and triazolam were suspended in 0.5% methylcellulose solution. The control monkey was given 0.5% MC. The behaviors of subjects were observed using a video camera with infrared light sensitivity. EEG, EMG and EOG were recorded on a MO disk with an electroencephalograph (EE5518, NEC Medical Systems, Tokyo, Japan). All recordings were carried out from 18:00 until 6:00. The EEG power spectral analysis was also performed continuously by means of a fast Fourier transform (FFT) system equipped with a personal computer. […] Latencies of each sleep stage (the time until the first appearance of each sleep stage) were determined from 18:00. The occurrence of each sleep stage at nighttime and other sleep parameters were also determined."}, "[2]": {"test_system": "crab-eating macaques (Macaca fascicularis)", "assay": "Observation of general behavior of monkeys (video camera)", "assay_type": "in vivo", "settings": "triazolam 0.03 mg/kg p.o. alone", "description": "as §1"}}, "data": [{"smiles": "Cc1nnc2n1-c1ccc(Cl)cc1C(c1ccccc1Cl)=NC2", "note": "[triazolam, 8-chloro-6-(2-chlorophenyl)-1-methyl-4H-[1,2,4]triazolo[4,3-a][1,4]benzodiazepine]", "values": [{"measurement": "effect on the sleep latencies", "setting": "[1]; triazolam 0.03 mg/kg p.o. alone", "result": "no significant effects"}, {"measurement": "ataxia and sedation", "setting": "[2]", "result": "did not cause"}, {"measurement": "effect on general behavior", "setting": "[2]", "result": "did not affect"}]}, {"smiles": "CCC(=O)NCC[C@@H]1CCc2ccc3c(c21)CCO3", "note": "[compound A, (S)-N-[2-(1,6,7,8-tetrahydro-2H-indeno[5,4-b]furan-8-yl)ethyl]propionamide]", "values": [{"measurement": "effect on the latency of any sleep stages", "setting": "[1]; compound A 0.003 mg/kg p.o. alone", "result": "no significant effects"}]}]}
